Results on one compound are retold here after PubChem BioAssay (NCI).

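Briefly, cells in 96-well plates were exposed to five compound concentrations for 48 h, and endpoints were estimated by linear interpolation. The concentration for full growth arrest is given as TGI.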

The experiment has as its system SN12K1 renal. In words: growth of human tumour cells (NCI), 48 h.

`COC(=O)NC1C(C)OC(OC2C/C=C(/C)C3C=CC4C(OC5CC(OC6CCC(OC7CC(O)C(OC8CCC(O)C(C)O8)C(C)O7)C(C)O6)C(OC(C)=O)C(C)O5)C(C)CC(C)C4C3(C)/C(O)=C3/C(=O)OC4(CC(C=O)=CC(O)C4/C=C\2C)C3=O)CC1(C)[N+](=O)[O-]` (stereo unspecified) returned a TGI of 753 nM.
